This note sets out measurements from US9630922B2, “3-spiro-7-hydroxamic acid tetralins as HDAC inhibitors” (Forma Therapeutics, Inc., priority 2015, dated 2017).

The target of the test is T1, HDAC6 (Homo sapiens, UniProt Q9UBN7).
T1 construct: Full length human recombinant HDAC6 protein was expressed in baculoviral system; made in house; host or cells: baculoviral system
T1 sequence (Q9UBN7 1-1215): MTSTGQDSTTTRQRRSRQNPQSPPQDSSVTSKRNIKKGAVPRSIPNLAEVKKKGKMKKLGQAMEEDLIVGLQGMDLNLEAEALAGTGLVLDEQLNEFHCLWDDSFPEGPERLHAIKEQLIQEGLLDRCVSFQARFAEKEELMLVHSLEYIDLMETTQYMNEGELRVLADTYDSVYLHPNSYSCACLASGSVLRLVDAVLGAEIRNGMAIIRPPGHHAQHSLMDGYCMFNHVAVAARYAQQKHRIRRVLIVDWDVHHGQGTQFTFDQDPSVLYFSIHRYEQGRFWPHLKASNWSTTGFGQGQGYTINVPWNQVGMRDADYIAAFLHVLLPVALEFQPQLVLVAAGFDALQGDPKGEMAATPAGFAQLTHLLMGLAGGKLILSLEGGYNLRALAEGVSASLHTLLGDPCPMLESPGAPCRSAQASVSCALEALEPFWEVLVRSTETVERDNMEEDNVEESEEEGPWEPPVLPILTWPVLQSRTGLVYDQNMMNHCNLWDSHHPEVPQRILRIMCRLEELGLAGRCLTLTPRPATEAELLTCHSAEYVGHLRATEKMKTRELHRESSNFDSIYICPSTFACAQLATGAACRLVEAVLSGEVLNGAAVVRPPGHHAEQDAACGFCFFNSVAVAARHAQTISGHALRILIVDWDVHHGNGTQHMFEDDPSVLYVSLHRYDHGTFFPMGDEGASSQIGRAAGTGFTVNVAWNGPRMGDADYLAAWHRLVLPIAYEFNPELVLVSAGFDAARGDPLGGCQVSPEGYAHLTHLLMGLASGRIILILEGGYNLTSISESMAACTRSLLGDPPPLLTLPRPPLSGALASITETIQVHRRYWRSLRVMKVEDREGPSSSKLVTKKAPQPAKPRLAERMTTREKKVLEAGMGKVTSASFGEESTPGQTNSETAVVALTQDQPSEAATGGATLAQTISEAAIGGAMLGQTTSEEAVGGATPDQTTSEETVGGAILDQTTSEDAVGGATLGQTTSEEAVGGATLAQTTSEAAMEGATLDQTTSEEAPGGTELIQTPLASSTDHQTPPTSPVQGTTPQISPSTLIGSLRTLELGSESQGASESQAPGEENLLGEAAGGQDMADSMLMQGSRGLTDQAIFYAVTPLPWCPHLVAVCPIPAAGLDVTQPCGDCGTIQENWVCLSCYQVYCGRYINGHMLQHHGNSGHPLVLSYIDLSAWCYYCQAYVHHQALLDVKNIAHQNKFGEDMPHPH
In words: In vitro Histone Deacetylase Assay (enzymatic HDAC6 electrophoretic mobility shift assay). It is filed as biochemical. The conditions noted are these: full length human recombinant HDAC6, 1 nM enzyme, 2 μM peptide substrate RHKK(Ac)-NH2, 25° C.; read-out: HDAC6 activity range. The procedure:
The enzymatic HDAC6 assay was performed using electrophoretic mobility shift assay. Full length human recombinant HDAC6 protein was expressed in baculoviral system and purified by affinity chromatography. The enzymatic reactions were assembled in 384 well plates in a total volume of 25 μL in a reaction buffer composing: 100 mM HEPES, pH7.5, 25 mM KCl, 0.1% bovine serum albumin, 0.01% Triton X-100, 1% DMSO (from compounds) 2 μM of the fluorescently labeled peptide substrate and enzyme. The enzyme was added at a final concentration of 1 nM. The peptide substrate RHKK(Ac)—NH2 was used. The compounds were tested at 12 concentrations spaced by 3× dilution intervals. Negative control samples (0%-inhibition in the absence of inhibitor) and positive control samples (100%-inhibition) were assembled in replicates of four in each assay plate. The reactions were incubated at 25° C. and quenched by the addition of 45 μL of termination buffer (100 mM HEPES, pH 7.5, 0.01% Triton X-100, 0.05% SDS).
The terminated assay plates were analyzed on LabChip® 3000 microfluidic electrophoresis instrument (Perkin Elmer/Caliper Life Sciences). The fluorescence intensity of the electrophoretically separated de-acetylated product and substrate peptide was measured. Activity in each sample was determined as the product to sum ratio (PSR): P/(S+P), where P is the peak height of the product peptide and S is the peak height of the substrate peptide. Percent inhibition (Pinh) is determined using the following equation:
Pinh=(PSR0%−PSRinh)/(PSR0%−PSR100%)*100, where PSRinh is the product sum ratio in the presence of inhibitor, PSR0% is the average product sum ration in the absence of inhibitor and PSR100% is the average product sum ratio in 100%-inhibition control samples. The IC50 values of inhibitors were determined by fitting the %-inhibition curves with 4 parameter dose-response model using XLfit 4 software.
As set forth in Table-31, below, IC50 values are defined as follows: IC50≦0.1 μM (+++); IC50>0.1 μM and ≦0.5 μM (++); IC50>0.5 μM (+).
As for `O=C(NO)c1ccc2c(c1)CCC1(CCCNC1=O)C2` (stereo not drawn) [Compound I-177, N-hydroxy-2′-oxo-3,4-dihydro-1H-spiro[naphthalene-2,3′-piperidine]-6-carboxamide], the IC50 is at most 100 nM.

For `COc1ncccc1N1CC[C@]2(CCc3cc(C(=O)NO)ccc3C2)C1=O` [Compound I-145, (R)-N-hydroxy-1′-(2-methoxypyridin-3-yl)-2′-oxo-3,4-dihydro-1H-spiro[naphthalene-2,3′-pyrrolidine]-6-carboxamide], the IC50 was at most 100 nM.

As for `CC(C)CN1CCCC2(CCc3cc(C(=O)NO)ccc3C2)C1=O` (single isomer, unassigned) [Compound I-190], the IC50 was at most 100 nM.

Take `O=C(NO)c1ccc2c(c1)CC[C@@]1(CCN(c3cnc4ccccc4c3)C1=O)C2` [Compound I-102, (S)-N-hydroxy-2′-oxo-1′-(quinolin-3-yl)-3,4-dihydro-1H-spiro[naphthalene-2,3′-pyrrolidine]-6-carboxamide]: the IC50 was at most 100 nM.

`CN1C[C@@]2(CCc3cc(C(=O)NO)ccc3C2)CC1=O` (single isomer, unassigned) [Compound I-201]: the IC50 was at most 100 nM.

On to `CN1CCC2(CCc3cc(C(=O)NO)ccc3O2)C1=O` (stereo not drawn) [Compound I-237, N-hydroxy-1′-methyl-2′-oxospiro[chromane-2,3′-pyrrolidine]-6-carboxamide], for which the IC50 was in the range of 100 to 500 nM.

For `CC(C)CN1CC2(CCc3cc(C(=O)NO)ccc3C2)CC1=O` (single isomer, unassigned) [Compound I-207], the IC50 was at most 100 nM.

On to `N#Cc1ccc(N2CC[C@@]3(CCc4cc(C(=O)NO)ccc4C3)C2=O)cc1` [Compound I-173, (S)-1′-(4-cyanophenyl)-N-hydroxy-2′-oxo-3,4-dihydro-1H-spiro[naphthalene-2,3′-pyrrolidine]-6-carboxamide], for which the IC50 is at most 100 nM.

On to `O=C(NO)c1ccc2c(c1)CC[C@]1(CCN(c3ccccn3)C1=O)C2` [Compound I-20, (R)-N-hydroxy-2′-oxo-1′-(pyridin-2-yl)-3,4-dihydro-1H-spiro[naphthalene-2,3′-pyrrolidine]-6-carboxamide], for which the IC50 is at most 100 nM.

`COc1ccc(CN2CC[C@]3(CCc4cc(C(=O)NO)ccc4C3)C2=O)cc1` [Compound I-56, (R)-N-hydroxy-1′-(4-methoxybenzyl)-2′-oxo-3,4-dihydro-1H-spiro[naphthalene-2,3′-pyrrolidine]-6-carboxamide]: the IC50 was at most 100 nM.

For the compound `COc1ccccc1N1CC[C@@]2(CCc3cc(C(=O)NO)ccc3C2)C1=O` [Compound I-115, (S)-N-hydroxy-1′-(2-methoxyphenyl)-2′-oxo-3,4-dihydro-1H-spiro[naphthalene-2,3′-pyrrolidine]-6-carboxamide], the IC50 was at most 100 nM.

`COc1ccc(CN2CC[C@@]3(CCc4cc(C(=O)NO)ccc4C3)C2=O)cc1` [Compound I-83, (S)-N-hydroxy-1′-(4-methoxybenzyl)-2′-oxo-3,4-dihydro-1H-spiro[naphthalene-2,3′-pyrrolidine]-6-carboxamide]: the IC50 is at most 100 nM.

Consider `O=C(NO)c1ccc2c(c1)CC[C@]1(CCN(CC(=O)N3CCOCC3)C1=O)C2` [Compound I-43, (R)-N-hydroxy-1′-(2-morpholino-2-oxoethyl)-2′-oxo-3,4-dihydro-1H-spiro[naphthalene-2,3′-pyrrolidine]-6-carboxamide], for which the IC50 was at most 100 nM.

Consider `O=C(NO)c1ccc2c(c1)CC[C@]1(CCN(Cc3ccccc3C(F)(F)F)C1=O)C2` [Compound I-39, (R)-N-hydroxy-2′-oxo-1′-(2-(trifluoromethyl)benzyl)-3,4-dihydro-1H-spiro[naphthalene-2,3′-pyrrolidine]-6-carboxamide], for which the IC50 was at most 100 nM.

Turning to `O=C(NO)c1ccc2c(c1)CCC1(CCCN(CC3COC3)C1=O)C2` (single isomer, unassigned) [Compound I-196], the IC50 was at most 100 nM.
